How the values were obtained:
[1] = target: T1, human neutrophil elastase (HNE) (Homo sapiens, UniProt P08246); experiment: Specificity assay, neutrophil elastase; assay type: biochemical; conditions: read-out: HLE activity in the specificity assays
T1 construct: purchased Sigma, EMDbiosciences
T1 sequence (P08246 30-267): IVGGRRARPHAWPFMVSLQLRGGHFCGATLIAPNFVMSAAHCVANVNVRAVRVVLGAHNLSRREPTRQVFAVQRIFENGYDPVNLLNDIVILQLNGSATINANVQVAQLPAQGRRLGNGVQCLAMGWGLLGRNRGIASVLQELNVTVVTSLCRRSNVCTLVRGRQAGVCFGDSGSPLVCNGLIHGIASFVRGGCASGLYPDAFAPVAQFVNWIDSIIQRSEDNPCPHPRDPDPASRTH
Method: The specificities of compounds of the present disclosure were determined against a variety of serine proteases: human neutrophil elastase (HNE), porcine pancreatic elastase (PPE) and human pancreatic chymotrypsin and one cysteine protease: human liver cathepsin B. In all cases a 96-well plate format protocol using a fluorometric Amino-Methyl-Coumarin (AMC) substrate specific for each enzyme was used as described previously (PCT Patent Application No. WO 00/09543) with some modifications to the serine protease assays. All enzymes were purchased from Sigma, EMDbiosciences while the substrates were from Bachem, Sigma and EMDbiosciences.
Compound concentrations varied from 100 to 0.4 μM depending on their potency. The enzyme assays were each initiated by addition of substrate to enzyme-inhibitor pre-incubated for 10 min at room temperature and hydrolysis to 15% conversion as measured on cytofluor.
50 mM Tris-HCl, pH 8.0, 50 mM NaCl, 0.1 mM EDTA, 3% DMSO, 0.02% Tween-20, 5 μM succ-AAPV-AMC and 20 nM HNE or 8 nM PPE;
The percentage of inhibition was calculated using the formula: [1−((UVinh−UVblank)/(UVctl−UVblank))]×100
A non-linear curve fit was applied to the inhibition-concentration data, and the 50% effective concentration (IC50) was calculated by the use of Excel XLfit software.

[2] = target: T2, HCV NS3/4A protease complex, H77 strain (1a genotype) (Hepatitis C virus genotype 1a, UniProt P27958, C1454S/C1711G); experiment: FRET peptide assay to monitor HCV NS3/4A proteolytic activity (H77 strain); assay type: biochemical; conditions: read-out: IC50 against NS3/4A H77 strain
T2 construct: DNA encoding the recombinant HCV NS3/4A protease complex (amino acids 1027 to 1711) for these strains; made in house; host or cells: Escherichia coli BL21 (DE3), pET21b
T2 sequence (P27958 1027-1711 C1454S/C1711G, one chain of several): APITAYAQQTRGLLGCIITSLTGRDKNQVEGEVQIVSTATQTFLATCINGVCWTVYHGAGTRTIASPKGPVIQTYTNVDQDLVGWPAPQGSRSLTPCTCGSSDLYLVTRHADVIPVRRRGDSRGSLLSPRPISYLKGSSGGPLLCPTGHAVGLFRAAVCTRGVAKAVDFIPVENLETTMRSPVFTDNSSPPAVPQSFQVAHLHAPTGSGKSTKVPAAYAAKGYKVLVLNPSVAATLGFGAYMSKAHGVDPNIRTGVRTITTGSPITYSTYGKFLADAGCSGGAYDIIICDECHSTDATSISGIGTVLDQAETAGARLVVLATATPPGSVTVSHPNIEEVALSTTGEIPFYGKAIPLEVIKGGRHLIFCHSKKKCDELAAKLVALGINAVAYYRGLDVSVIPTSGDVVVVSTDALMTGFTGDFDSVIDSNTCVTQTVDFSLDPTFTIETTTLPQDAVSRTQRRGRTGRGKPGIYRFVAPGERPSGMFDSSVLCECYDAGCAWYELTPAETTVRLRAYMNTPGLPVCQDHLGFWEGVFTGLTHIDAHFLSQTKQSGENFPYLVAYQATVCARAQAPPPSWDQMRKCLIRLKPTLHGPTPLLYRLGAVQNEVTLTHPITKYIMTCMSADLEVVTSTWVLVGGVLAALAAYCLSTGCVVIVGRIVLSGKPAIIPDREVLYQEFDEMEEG
Excerpt: HCV NS3 protease complexes, derived from the BMS strain, H77 strain or J4L6S strain, were generated, as described below. These purified recombinant proteins were generated for use in a homogeneous assay (see below) to provide an indication of how effective compounds of the present disclosure would be in inhibiting HCV NS3 proteolytic activity.
Serum from an HCV-infected patient was obtained from Dr. T. Wright, San Francisco Hospital. An engineered full-length cDNA (compliment deoxyribonucleic acid) template of the HCV genome (BMS strain) was constructed from DNA fragments obtained by reverse transcription-PCR(RT-PCR) of serum RNA (ribonucleic acid) and using primers selected on the basis of homology between other genotype la strains. From the determination of the entire genome sequence, a genotype la was assigned to the HCV isolate according to the classification of Simmonds et al. (See P Simmonds, K A Rose, S Graham, S W Chan, F McOmish, B C Dow, E A Follett, P L Yap and H Marsden, J. Clin. Microbiol., 31(6), 1493-1503 (1993)). […]

Work on C=C[C@@H]1C[C@]1(NC(=O)[C@@H]1C[C@@](O)(c2ccc(-c3ccccc3)cc2)CN1C(=O)[C@@H](NC(=O)OC(C)(C)C)C(C)(C)C)C(=O)NS(=O)(=O)C1CC1 [Compound 3] yielded an IC50 [1] of 82 µM and an IC50 [2] of 0.0016 µM.

— patent publication US7888464B2, “Hepatitis C virus inhibitors” (Bristol-Myers Squibb Company, priority 2006, dated 2011)
